This is an account of results in US20210322297A9, “COSMETIC COMPOSITIONS FOR PROTECTION AGAINST LIGHT-INDUCED DAMAGES” (priority 2018, published 2021).

The test system of the assay is Human keratinocytes (HaCAT). The experiment in a line: Carbonyl Score analysis: blue light (460 nm)-induced protein oxidative damage (carbonylation). Format: cell-based. The text has this: Human keratinocytes (HaCAT) were irradiated in the presence or absence of a composition (C-1) comprising equal weight amounts of extracts (Q), (GS) and (GT) (VitakeloxTM) using an irradiation system available from OxiProteomics®. A solution of N-acetyl-cysteine was used as positive control of protection. Just after irradiation, proteins were extracted from the cells and analyzed. Carbonylated proteins were labeled with specific functionalized fluorescent probes and the resulting samples were resolved by high-resolution electrophoresis. Total proteins were post-stained with SyproTM Ruby protein gel stain. A Carbonyl (protein damage) Score was obtained for each sample after normalization of the fluorescent signal for carbonylated proteins by total proteins. A significant increase in protein oxidative damage was observed upon blue light irradiation. This increase was prevented in the presence of composition (C-1) at two different concentrations (0.01% and 0.005% w/v) and with two times of treatment (6 hours and 24 hours). HaCaT cells were cultured in calcium-free DMEM (Dulbecco's Modified Eagle Medium), with 10% SVF […], at 37° C. and humid atmosphere, supplemented with 5% CO2. Cells were seeded (500.000 cells/well) at day 0 (D0) in multi-well plates containing culture medium and distributed in 8 experimental groups as depicted in Table 1. On day 1 (D1), two solutions of composition (C-1) having two different concentrations (0.01% and 0.005%) were prepared by solubilisation of the composition in the culture medium. Experimental groups 4 and 6 were incubated for 24 hours (t2) with the solutions prior to irradiation. At day 2 (D2), experimental groups 3 and 5 were incubated for 6 hours (t1) prior to blue light irradiation. Groups 7 and 8 were incubated with a solution of NAC (N-acetyl-cysteine) for 6 and 24 hours. On day 2 (D2), the cells were washed and a stress was induced by irradiation with Blue Light (LED source, emission peak at λ=460 nm), using an OxiProteomics® irradiation system. Group 1 was not irradiated. Just after irradiation, cells were collected, snap-frozen and stored at -80° C. for the analysis. Proteins were extracted from cells, quantified by the Bradford method and split into equal amounts for analyses. […] After extraction and solubilisation, proteins in samples were quantified by the Bradford method using calibrated BSA (bovine serum albumin) as standard (Bradford M. Anal. Biochem., 72, 248, 1976). […] Proteins were fixed to the gel and the carbonylated proteins were evidenced by fluorescence scanning. […] Quantification was obtained from each sample, both for carbonylated and total proteins. […]

Values joined by “and” are separate entries in the source; they are usually repeats but may differ in a detail not shown here. Identical values can stand only once.

Turning to `CC(=O)N[C@@H](CS)C(=O)O` [NAC, N-acetyl-cysteine], the “Carbonyl Score” value runs as follows: (NAC 6 h incubation before blue light irradiation, group G-7, carbonylated signal normalized by total protein signal) 0.734 and 0.742 and 0.657; (NAC 24 h incubation before blue light irradiation, group G-8, carbonylated signal normalized by total protein signal) 0.639 and 0.700 and 0.631. Besides, the Oxidized proteins reads like this: (NAC 6 h incubation before blue light irradiation, group G-7, densitometric signal per replicate) 12101.36 and 11379.65 and 10415.94; (NAC 24 h incubation before blue light irradiation, group G-8, densitometric signal per replicate) 9126.82 and 11501.94 and 10859.53.
